compound,measurement,setting,value
CCOc1ncc(C)c2c1[C@H](c1ccc(C#N)cc1OC)C(C(N)=O)=C(C)N2,solubility (mole fraction),"in 2-butanone, 273.15 K",0.0031
same,solubility (mole fraction),"in 2-butanone, 278.15 K",0.00347
same,solubility (mole fraction),"in 2-butanone, 283.15 K",0.00376
same,solubility (mole fraction),"in 2-butanone, 288.15 K",0.0041
same,solubility (mole fraction),"in 2-butanone, 293.15 K",0.0044
same,solubility (mole fraction),"in 2-butanone, 298.15 K",0.00468
same,solubility (mole fraction),"in 2-butanone, 303.15 K",0.00508
same,solubility (mole fraction),"in 2-butanone, 308.15 K",0.00542
same,solubility (mole fraction),"in 2-butanone, 313.15 K",0.00587
same,solubility (mole fraction),"in acetone, 273.15 K",0.00376
same,solubility (mole fraction),"in acetone, 278.15 K",0.00407
same,solubility (mole fraction),"in acetone, 283.15 K",0.00449
same,solubility (mole fraction),"in acetone, 288.15 K",0.00508
same,solubility (mole fraction),"in acetone, 293.15 K",0.00545
same,solubility (mole fraction),"in acetone, 298.15 K",0.00577
same,solubility (mole fraction),"in acetone, 303.15 K",0.00614
same,solubility (mole fraction),"in acetone, 308.15 K",0.00665
same,solubility (mole fraction),"in acetone, 313.15 K",0.00725
same,solubility (mole fraction),"in acetonitrile, 273.15 K",0.000808
same,solubility (mole fraction),"in acetonitrile, 278.15 K",0.000973
same,solubility (mole fraction),"in acetonitrile, 283.15 K",0.00111
same,solubility (mole fraction),"in acetonitrile, 288.15 K",0.00129
same,solubility (mole fraction),"in acetonitrile, 293.15 K",0.00144
same,solubility (mole fraction),"in acetonitrile, 298.15 K",0.00166
same,solubility (mole fraction),"in acetonitrile, 303.15 K",0.0019
same,solubility (mole fraction),"in acetonitrile, 308.15 K",0.00217
same,solubility (mole fraction),"in acetonitrile, 313.15 K",0.00247
same,solubility (mole fraction),"in dichloromethane, 273.15 K",0.0047
same,solubility (mole fraction),"in dichloromethane, 278.15 K",0.00506
same,solubility (mole fraction),"in dichloromethane, 283.15 K",0.00565
same,solubility (mole fraction),"in dichloromethane, 288.15 K",0.00622
same,solubility (mole fraction),"in dichloromethane, 293.15 K",0.00669
same,solubility (mole fraction),"in dichloromethane, 298.15 K",0.00724
same,solubility (mole fraction),"in dichloromethane, 303.15 K",0.00766
same,solubility (mole fraction),"in dichloromethane, 308.15 K",0.00814
same,solubility (mole fraction),"in ethanol, 273.15 K",0.000949
same,solubility (mole fraction),"in ethanol, 278.15 K",0.00115
same,solubility (mole fraction),"in ethanol, 283.15 K",0.00135
same,solubility (mole fraction),"in ethanol, 288.15 K",0.00156
same,solubility (mole fraction),"in ethanol, 293.15 K",0.00182
same,solubility (mole fraction),"in ethanol, 298.15 K",0.00206
same,solubility (mole fraction),"in ethanol, 303.15 K",0.00233
same,solubility (mole fraction),"in ethanol, 308.15 K",0.00261
same,solubility (mole fraction),"in ethanol, 313.15 K",0.00299
same,solubility (mole fraction),"in ethyl acetate, 273.15 K",0.00114
same,solubility (mole fraction),"in ethyl acetate, 278.15 K",0.00128
same,solubility (mole fraction),"in ethyl acetate, 283.15 K",0.00143
same,solubility (mole fraction),"in ethyl acetate, 288.15 K",0.00157
same,solubility (mole fraction),"in ethyl acetate, 293.15 K",0.0017
same,solubility (mole fraction),"in ethyl acetate, 298.15 K",0.00182
same,solubility (mole fraction),"in ethyl acetate, 303.15 K",0.00195
same,solubility (mole fraction),"in ethyl acetate, 308.15 K",0.00211
same,solubility (mole fraction),"in ethyl acetate, 313.15 K",0.00225
same,solubility (mole fraction),"in isopropanol, 273.15 K",0.000229
same,solubility (mole fraction),"in isopropanol, 278.15 K",0.000333
same,solubility (mole fraction),"in isopropanol, 283.15 K",0.000443
same,solubility (mole fraction),"in isopropanol, 288.15 K",0.000554
same,solubility (mole fraction),"in isopropanol, 293.15 K",0.000682
same,solubility (mole fraction),"in isopropanol, 298.15 K",0.000822
same,solubility (mole fraction),"in isopropanol, 303.15 K",0.000984
same,solubility (mole fraction),"in isopropanol, 308.15 K",0.00122
same,solubility (mole fraction),"in isopropanol, 313.15 K",0.00152
same,solubility (mole fraction),"in isopropyl acetate, 273.15 K",0.000378
same,solubility (mole fraction),"in isopropyl acetate, 278.15 K",0.000459
same,solubility (mole fraction),"in isopropyl acetate, 283.15 K",0.000563
same,solubility (mole fraction),"in isopropyl acetate, 288.15 K",0.000647
same,solubility (mole fraction),"in isopropyl acetate, 293.15 K",0.000728
same,solubility (mole fraction),"in isopropyl acetate, 298.15 K",0.000809
same,solubility (mole fraction),"in isopropyl acetate, 303.15 K",0.00089
same,solubility (mole fraction),"in isopropyl acetate, 308.15 K",0.000979
same,solubility (mole fraction),"in isopropyl acetate, 313.15 K",0.00113
same,solubility (mole fraction),"in methanol, 273.15 K",0.004
same,solubility (mole fraction),"in methanol, 278.15 K",0.00422
same,solubility (mole fraction),"in methanol, 283.15 K",0.0045
same,solubility (mole fraction),"in methanol, 288.15 K",0.00484
same,solubility (mole fraction),"in methanol, 293.15 K",0.00515
same,solubility (mole fraction),"in methanol, 298.15 K",0.00553
same,solubility (mole fraction),"in methanol, 303.15 K",0.00599
same,solubility (mole fraction),"in methanol, 308.15 K",0.00638
same,solubility (mole fraction),"in methanol, 313.15 K",0.00684
same,solubility (mole fraction),"in methyl acetate, 273.15 K",0.00127
same,solubility (mole fraction),"in methyl acetate, 278.15 K",0.00136
same,solubility (mole fraction),"in methyl acetate, 283.15 K",0.0015
same,solubility (mole fraction),"in methyl acetate, 288.15 K",0.00166
same,solubility (mole fraction),"in methyl acetate, 293.15 K",0.00182
same,solubility (mole fraction),"in methyl acetate, 298.15 K",0.00197
same,solubility (mole fraction),"in methyl acetate, 303.15 K",0.00211
same,solubility (mole fraction),"in methyl acetate, 308.15 K",0.00229
same,solubility (mole fraction),"in methyl acetate, 313.15 K",0.00248
